# Earlier results in patent US6156769A (priority 2000, dated 2000).
# Test system: pruritus
# Conditions: i.v. morphine
smiles,measurement,value
CN1CC[C@]23c4c5ccc(O)c4O[C@H]2[C@@H](O)C=C[C@H]3[C@H]1C5 [morphine],generalized itching,about 1 % of patients
